Literature values in patent US8178083B2, “Treatment of optic neuritis” (Ares Trading, S.A., priority 2005, dated 2012).

Test system: patients with acute isolated unilateral optic neuritis

Compound: C[C@]12C=CC(=O)C=C1CC[C@@H]1[C@@H]2C(=O)C[C@@]2(C)[C@H]1CC[C@]2(O)C(=O)CO [prednisone]
- risk of a new optic neuritis attack in the fellow eye versus placebo-treated group (oral prednisone 1 mg/kg per day for 14 days): more than double
- patients who developed new bouts of optic neuritis (in either the affected or fellow eye) (within 2 years of follow-up): 30%
